Experimental data from ChEMBL document CHEMBL1201862, “PubChem BioAssay data set” (2004).
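Five concentrations, 48 hours, 96-well plates. GI50: concentration for 50% inhibition of growth.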 Calls of active or inactive are those of the source. Cut-off read from the data, not from the text of the source: active = GI50 up to about 1.1 µM and inactive = higher.

Assays:
Assay in all cases: growth of human tumour cells (NCI), 48 h
786-0 = system: 786-0
A498 = system: A498
A549 = system: A549
ACHN = system: ACHN
BT-549 = system: BT-549
CAKI-1 = system: CAKI-1
DU-145 = system: DU-145
EKVX = system: EKVX
HCC 2998 = system: HCC 2998
HCT-116 = system: HCT-116
HCT-15 = system: HCT-15
HL-60 = system: HL-60
HOP-62 = system: HOP-62
HOP-92 = system: HOP-92
HT-29 = system: HT-29
Hs-578T = system: Hs-578T
IGROV-1 = system: IGROV-1
K562 = system: K562
KM12 = system: KM12
LOX IMVI = system: LOX IMVI
M14 = system: M14
MDA-MB-231 = system: MDA-MB-231
MDA-MB-435 = system: MDA-MB-435
MDA-N = system: MDA-N
MOLT-4 = system: MOLT-4
Malme-3M = system: Malme-3M
NCI-H226 = system: NCI-H226
NCI-H23 = system: NCI-H23
NCI-H460 = system: NCI-H460
NCI-H522 = system: NCI-H522
NCI/ADR-RES = system: NCI/ADR-RES
OVCAR-3 = system: OVCAR-3
OVCAR-4 = system: OVCAR-4
OVCAR-5 = system: OVCAR-5
OVCAR-8 = system: OVCAR-8
PC-3 = system: PC-3
RPMI-8226 = system: RPMI-8226
RXF 393 = system: RXF 393
SF-268 = system: SF-268
SF-295 = system: SF-295
SK-MEL-28 = system: SK-MEL-28
SK-MEL-2 = system: SK-MEL-2
SK-MEL-5 = system: SK-MEL-5
SN12C = system: SN12C
SNB-19 = system: SNB-19
SR = system: SR
SW-620 = system: SW-620
T47D = system: T47D
TK-10 = system: TK-10
U-251 = system: U-251
UACC-257 = system: UACC-257
UACC-62 = system: UACC-62
UO-31 = system: UO-31
CCRF-CEM = system: CCRF-CEM
COLO 205 = system: COLO 205
SF-539 = system: SF-539
SK-OV-3 = system: SK-OV-3
SNB-75 = system: SNB-75

Measured: GI50

CC(c1ccccc1)N1CCN(C(C)c2ccccc2)CC1 (configuration not stated)
57.1 µM: HCT-15
inactive: 786-0 > 100 µM | A498 77.4 µM | A549 > 100 µM | ACHN > 100 µM | BT-549 > 100 µM | CAKI-1 > 100 µM | DU-145 > 100 µM | EKVX > 100 µM | HCC 2998 20.1 µM | HCT-116 43.5 µM | HL-60 > 100 µM | HOP-62 > 100 µM | HOP-92 31.6 µM | HT-29 44.8 µM | Hs-578T > 100 µM | IGROV-1 > 100 µM | K562 27.7 µM | KM12 > 100 µM | LOX IMVI > 100 µM | M14 22.8 µM | MDA-MB-231 > 100 µM | MDA-MB-435 80.4 µM | MDA-N 45.6 µM | MOLT-4 39.5 µM | Malme-3M 56.6 µM | NCI-H226 > 100 µM | NCI-H23 > 100 µM | NCI-H460 65.2 µM | NCI-H522 > 100 µM | NCI/ADR-RES > 100 µM | OVCAR-3 35.4 µM | OVCAR-4 > 100 µM | OVCAR-5 > 100 µM | OVCAR-8 > 100 µM | PC-3 > 100 µM | RPMI-8226 26.1 µM | RXF 393 79.6 µM | SF-268 > 100 µM | SF-295 > 100 µM | SK-MEL-28 29 µM | SK-MEL-2 35.2 µM | SK-MEL-5 17.1 µM | SN12C > 100 µM | SNB-19 > 100 µM | SR 35.8 µM | SW-620 > 100 µM | T47D > 100 µM | TK-10 > 100 µM | U-251 > 100 µM | UACC-257 68.7 µM | UACC-62 40.8 µM | UO-31 > 100 µM

Clc1nc(Nc2nc3ccccc3[nH]2)nc(Cl)c1-c1ccccc1
14.4 µM: HCT-15
inactive: 786-0 16.1 µM | A498 21.5 µM | A549 34.7 µM | ACHN 15.8 µM | BT-549 16.5 µM | CAKI-1 31.1 µM | CCRF-CEM 19.5 µM | COLO 205 19.1 µM | DU-145 74.3 µM | EKVX 23.6 µM | HCT-116 21.1 µM | HL-60 36.1 µM | HOP-92 8.65 µM | HT-29 16.8 µM | Hs-578T 21.5 µM | IGROV-1 19 µM | K562 25.2 µM | KM12 40.8 µM | M14 35.1 µM | MDA-MB-231 12.7 µM | MDA-MB-435 29.3 µM | MDA-N 10.3 µM | MOLT-4 76 µM | Malme-3M 19.1 µM | NCI-H226 20.5 µM | NCI-H23 17.3 µM | NCI-H460 12.2 µM | NCI-H522 17.3 µM | NCI/ADR-RES 27.7 µM | OVCAR-4 14.8 µM | OVCAR-5 28.3 µM | OVCAR-8 27.7 µM | PC-3 23 µM | RPMI-8226 34.3 µM | RXF 393 16.9 µM | SF-268 33 µM | SF-295 18 µM | SF-539 18.1 µM | SK-MEL-28 11.7 µM | SK-MEL-2 23.3 µM | SK-MEL-5 20.9 µM | SK-OV-3 22.1 µM | SN12C 12.6 µM | SNB-19 36.1 µM | SNB-75 9.38 µM | SR 29.1 µM | SW-620 11.2 µM | T47D 40.7 µM | TK-10 39.4 µM | U-251 15.9 µM | UACC-257 29.7 µM | UACC-62 18.1 µM | UO-31 20.8 µM
